Tested on: differentiating ES cells
Test: Apoptosis (TUNEL) in ceramide-depleted differentiating ES cells and its restoration by ceramide or analogs
Type: cell-based, mouse
Description: Fumonisin B1 (FB1) or myriocin-treated (ceramide-depleted) differentiating ES cells were incubated with natural ceramide. To prepare the natural ceramide, 50 mg of EBs or NPs were resuspended in 500 μl of water, and after phase separation with 500 μl of CHCl3/CH3OH (1:1 by vol.) the neutral lipids were recovered from the lower phase. The neutral lipids were evaporated to dryness with a gentle stream of nitrogen and redissolved in 1 ml of CHCl3. The solution was applied to a silicic acid gel column (0.5 g) and fatty acids and cholesterol washed out with another 15 ml of CHCl3 (Dasgupta and Hogan, 2001 J. Lipid Res., 42:301-308). The ceramide fraction was then eluted with 20 ml of CHCl3/acetone (9:1, by vol.), evaporated to dryness, and the residue (approximately 6 nmoles of ceramide) dissolved in 20 μl of ethanol containing 2% dodecane (vol./vol.). Aliquots of 5 μl were mixed with 1 ml of medium, yielding a final concentration of 1.5 μM natural ceramide for induction of apoptosis (Ji et al., 1995 FEBS Lett., 358:211-214).
Differentiating ES cells at the EB8 cells were dissociated and grown for 24 hours on laminin/ornithin-coated cover slips (NP1 stage) in DMEM/F12 (50/50), supplemented with 1×N2 and 20 ng/ml FGF-2. Cells were incubated for 3 hours with 10 μM bromodeoxyuridine (BrdU) and the TUNEL assay or immunostainings performed after 5 hours of incubation. For immunostaining, cells were fixed with 4% paraformaldehyde in phosphate-buffered saline (PBS). Fixed cells were permeabilized with 0.2% Triton X-100 in PBS for 5 minutes at room temperature and immunostaining performed as described previously (Bieberich et al., 2001 J. Biol. Chem., 276:44396-44404). The nuclei were stained by treatment with 2 μg/ml Hoechst 33258 in PBS for 30 minutes at room temperature. Apoptotic nuclei were stained using the fluorescein FragEL TUNEL assay according to instructions of the manufacturer (Oncogene).
The degree of apoptosis in differentiating ES cultures was determined since it was previously proposed that ceramide elevation induces apoptosis in NPs (Bieberch et al., 2001 J. Biol. Chem., 276:44396-44404). […] Apoptosis was elevated at the EB8 stage ([…]), and was highest at the NP2 stage (35+/−5%). […] Apoptosis was restored by the addition of 30 μM N-acetyl sphingosine (C2-ceramide), 80 μM of the novel ceramide analog N-oleoyl serinol (S18), or 1 μM of natural ceramide that was extracted from differentiating ES cells.

[1] = FB1-treated cells at the NP2 stage

SMILES: CCCCCCCC/C=C\CCCCCCCC(=O)NC(CO)CO [S18, N-(2-hydroxy-1-(hydroxymethyl)ethyl)-oleoylamide]
- dependence of apoptosis on PAR-4 expression [1]: only seen in cells that expressed PAR-4
- number of PAR-4 positive cells [1]: did not alter the number of PAR-4 positive cells
- restoration of apoptosis in FB1-treated cells (NP2 stage, 30 μM C2-ceramide, 80 μM S18, or 1 μM natural ceramide): restored
- concentration of endogenous ceramide (S18 incubation of FB1-treated cells at the NP2 stage): did not alter the concentration of endogenous ceramide

From patent publication US7445931B2, “Compositions and methods for enrichment of neural stem cells using ceramide analogs” (Bresagen, Inc., priority 2002, dated 2008)
